Experiment [1] addresses T1, c-Met (cytoplasmic domain) (Homo sapiens, UniProt P08581).
T1 construct: 10 ng/mL c-Met (cytoplasmic domain, Invitrogen Corporation #PV3143); purchased Invitrogen Corporation PV3143
Kind of experiment: c-Met Kinase Assay (same methods as for ALK, with modifications). The class given is biochemical. Particulars: c-Met kinase inhibition, 1 μM ATP. An outline of the steps:
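IC50 values were fitted by variable-slope sigmoidal regression of percent inhibition against log compound concentration. Phosphorylation was read with Eu-N1 PT66 antibody after a 15 min, 37 °C reaction. The reaction was initiated with 10 ng/mL c-Met cytoplasmic domain on wells coated with 10 μg/mL PLC-γ in TBS.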

The target of experiment [2] is T2, baculovirus-expressed ALK (Homo sapiens, UniProt Q9UM73).
T2 construct: host or cells: baculovirus expression system
T2 sequence (Q9UM73 19-1620): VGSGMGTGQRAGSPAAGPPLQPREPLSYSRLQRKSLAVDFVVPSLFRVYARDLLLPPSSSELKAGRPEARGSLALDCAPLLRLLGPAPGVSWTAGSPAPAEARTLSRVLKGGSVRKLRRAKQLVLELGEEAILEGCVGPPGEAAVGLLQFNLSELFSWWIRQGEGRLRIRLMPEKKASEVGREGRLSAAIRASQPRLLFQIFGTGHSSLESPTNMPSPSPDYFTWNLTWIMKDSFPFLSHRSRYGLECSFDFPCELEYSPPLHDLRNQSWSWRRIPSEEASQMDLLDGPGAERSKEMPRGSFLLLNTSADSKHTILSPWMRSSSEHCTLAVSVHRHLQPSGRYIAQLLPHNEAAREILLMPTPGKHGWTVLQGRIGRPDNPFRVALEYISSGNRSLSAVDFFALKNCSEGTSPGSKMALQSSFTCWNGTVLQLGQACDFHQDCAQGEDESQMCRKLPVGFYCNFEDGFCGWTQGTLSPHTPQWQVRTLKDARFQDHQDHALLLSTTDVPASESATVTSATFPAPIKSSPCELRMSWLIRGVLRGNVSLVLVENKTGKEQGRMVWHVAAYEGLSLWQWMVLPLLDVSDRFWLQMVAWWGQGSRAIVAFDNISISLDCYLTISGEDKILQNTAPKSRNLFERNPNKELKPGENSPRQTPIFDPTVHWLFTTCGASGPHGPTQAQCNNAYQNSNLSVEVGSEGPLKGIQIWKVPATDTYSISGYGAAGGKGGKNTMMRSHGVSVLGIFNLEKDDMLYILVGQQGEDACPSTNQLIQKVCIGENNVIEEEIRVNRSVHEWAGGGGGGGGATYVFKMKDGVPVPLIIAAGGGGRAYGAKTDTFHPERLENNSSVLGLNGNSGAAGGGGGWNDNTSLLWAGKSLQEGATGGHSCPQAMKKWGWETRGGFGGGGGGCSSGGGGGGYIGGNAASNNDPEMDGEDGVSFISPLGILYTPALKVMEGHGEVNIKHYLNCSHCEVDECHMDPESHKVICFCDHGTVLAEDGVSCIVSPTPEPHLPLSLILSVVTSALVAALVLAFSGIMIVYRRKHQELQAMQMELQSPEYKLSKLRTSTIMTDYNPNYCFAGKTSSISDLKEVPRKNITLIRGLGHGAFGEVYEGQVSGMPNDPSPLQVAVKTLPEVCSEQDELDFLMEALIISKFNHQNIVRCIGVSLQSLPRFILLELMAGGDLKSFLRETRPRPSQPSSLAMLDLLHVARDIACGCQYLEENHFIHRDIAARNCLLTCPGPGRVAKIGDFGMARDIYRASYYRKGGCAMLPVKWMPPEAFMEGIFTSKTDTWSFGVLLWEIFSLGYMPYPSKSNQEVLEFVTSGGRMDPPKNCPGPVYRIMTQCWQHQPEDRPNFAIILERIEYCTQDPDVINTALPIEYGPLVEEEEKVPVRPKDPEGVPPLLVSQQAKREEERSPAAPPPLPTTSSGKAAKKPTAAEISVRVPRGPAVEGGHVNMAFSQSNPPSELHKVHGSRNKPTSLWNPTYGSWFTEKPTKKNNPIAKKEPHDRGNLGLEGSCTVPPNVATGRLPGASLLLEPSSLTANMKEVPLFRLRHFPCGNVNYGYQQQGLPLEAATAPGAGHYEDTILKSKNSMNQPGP
The experiment can be described thus: ALK Kinase Assay (ELISA-type, time-resolved fluorescence). Format: biochemical. Particulars: ALK kinase inhibition, 1 μM ATP; read-out: ALK Activity. An outline of the steps:
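Wells were coated with phospholipase C-γ at 10 μg/mL in Tris-buffered saline. Adding 30 ng/ml enzyme started the reaction, which ran at 37° C for 15 minutes before Eu-N1 PT66 antibody detection. Percent inhibition versus log10 concentration gave IC50 by variable-slope fit.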

Where two headings read alike, the source gives them in different places.

T1 sequence (P08581 956-1390 limits assumed): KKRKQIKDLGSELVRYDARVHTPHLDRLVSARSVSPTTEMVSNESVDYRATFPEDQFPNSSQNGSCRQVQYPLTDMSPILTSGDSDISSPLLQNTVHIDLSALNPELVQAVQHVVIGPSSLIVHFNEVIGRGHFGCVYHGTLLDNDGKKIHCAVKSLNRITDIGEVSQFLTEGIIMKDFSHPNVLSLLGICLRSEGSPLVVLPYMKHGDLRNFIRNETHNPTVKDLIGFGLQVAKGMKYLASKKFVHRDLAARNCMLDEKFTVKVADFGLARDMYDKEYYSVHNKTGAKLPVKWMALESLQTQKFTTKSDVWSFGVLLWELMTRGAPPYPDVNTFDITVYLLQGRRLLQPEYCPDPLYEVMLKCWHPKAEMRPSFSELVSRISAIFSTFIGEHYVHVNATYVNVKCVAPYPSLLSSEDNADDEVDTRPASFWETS

For the compound `CCN1CCCOc2cc(Nc3ncc(Cl)c(Nc4c(F)cccc4C(=O)NC)n3)c(F)cc21` [Example 1691, 2-[5-Chloro-2-(9-ethyl-2-fluoro-6,7,8,9-tetrahydro-5-oxa-9-aza-benzocyclohepten-3-ylamino)-pyrimidin-4-ylamino]-3-fluoro-N-methyl-benzamide], the IC50 in experiment [1] (read-out: cMet Activity) and in experiment [2] was below 100 nM each time.

As for `CCN1CCCOc2cc(Nc3ncc(Cl)c(N[C@@H]4CCCC[C@H]4NS(C)(=O)=O)n3)ccc21` [Example 1693, N-{(1R,2R)-2-[5-Chloro-2-(9-ethyl-6,7,8,9-tetrahydro-5-oxa-9-aza-benzocyclohepten-3-ylamino)-pyrimidin-4-ylamino]-cyclohexyl}-methanesulfonamide], the IC50 in experiment [1] (read-out: cMet Activity) was 100 to 1000 nM; in experiment [2] it was below 100 nM.

As to `CCN1CCCOc2cc(Nc3ncc(Cl)c(Nc4ccc(N5CCOCC5)cc4OC)n3)ccc21` [Example 1694, 5-Chloro-N*2*-(9-ethyl-6,7,8,9-tetrahydro-5-oxa-9-aza-benzocyclohepten-3-yl)-N*4*-(2-methoxy-4-morpholin-4-yl-phenyl)-pyrimidine-2,4-diamine], the IC50 in experiment [1] (read-out: cMet Activity) was 1000 to 10000 nM; in experiment [2], below 100 nM.

Turning to `COCCOc1cccc(F)c1Nc1nc(Nc2ccc3c(c2)NC(=O)CCC3)ncc1Cl` [Example 1695, 8-{5-Chloro-4-[2-fluoro-6-(2-methoxy-ethoxy)-phenylamino]-pyrimidin-2-ylamino}-1,3,4,5-tetrahydro-benzo[b]azepin-2-one], the IC50 in experiment [1] (read-out: cMet Activity) and in experiment [2] was 100 to 1000 nM throughout.

`COCCOc1cccc(F)c1Nc1nc(Nc2ccc3c(c2)CCN(CCOC)CC3)ncc1Cl` [Example 1696, 5-Chloro-N*4*-[2-fluoro-6-(2-methoxy-ethoxy)-phenyl]-N*2*-[3-(2-methoxy-ethyl)-2,3,4,5-tetrahydro-1H-benzo[d]azepin-7-yl]-pyrimidine-2,4-diamine]: the IC50 in experiment [1] (read-out: cMet Activity) was 100 to 1000 nM; in experiment [2], below 100 nM.

Consider `CCN1CCCOc2ccc(Nc3ncc(Cl)c(Nc4ccsc4C(=O)NC)n3)cc21` [Example 1698, 3-[5-Chloro-2-(9-ethyl-6,7,8,9-tetrahydro-5-oxa-9-aza-benzocyclohepten-2-ylamino)-pyrimidin-4-ylamino]-thiophene-2-carboxylic acid methyl amide], for which the IC50 in experiment [1] (read-out: cMet Activity) and in experiment [2] was 100 to 1000 nM in each case.

Take `CCN1C(=O)CCCc2c1ccc(Nc1ncc(Cl)c(N[C@@H]3[C@@H]4C[C@@H]([C@@H](O)[C@H]4O)[C@@H]3C(N)=O)n1)c2OC` [Example 1699, (1R,2S,3R,4S,5S,6R)-3-[5-Chloro-2-(1-ethyl-6-methoxy-2-oxo-2,3,4,5-tetrahydro-1H-benzo[b]azepin-7-ylamino)-pyrimidin-4-ylamino]-5,6-dihydroxy-bicyclo[2.2.1]heptane-2-carboxylic acid amide]: the results for the IC50 in experiment [1] (read-out: cMet Activity) and in experiment [2] were above 10000 nM and 100 to 1000 nM, respectively.

As to `C=CCOc1cc(N2CCOCC2)cc(F)c1Nc1nc(Nc2ccc3c(c2)CCOC(=O)N3C)ncc1Cl` [Example 1700, 2-[4-(2-Allyloxy-6-fluoro-4-morpholin-4-yl-phenylamino)-5-chloro-pyrimidin-2-ylamino]-5-methyl-8,9-dihydro-5H-7-oxa-5-aza-benzocyclohepten-6-one], the IC50 in experiment [1] (read-out: cMet Activity) is 1000 to 10000 nM; in experiment [2], below 100 nM.

On to `CNC(=O)c1sccc1Nc1nc(Nc2ccc3c(c2)N(C(C)=O)CCCO3)ncc1Cl` [Example 1702, 3-[2-(9-Acetyl-6,7,8,9-tetrahydro-5-oxa-9-aza-benzocyclohepten-2-ylamino)-5-chloro-pyrimidin-4-ylamino]-thiophene-2-carboxylic acid methylamide], for which the IC50 in experiment [1] (cMet Activity) was below 100 nM; in experiment [2] it was 1000 to 10000 nM.

`CNC(=O)c1ccccc1Nc1nc(Nc2ccc3c(c2)N(C(C)=O)CCCO3)ncc1Cl` [Example 1703, 2-[2-(9-Acetyl-6,7,8,9-tetrahydro-5-oxa-9-aza-benzocyclohepten-2-ylamino)-5-chloro-pyrimidin-4-ylamino]-N-methyl-benzamide]: the IC50 in experiment [1] (read-out: cMet Activity) and in experiment [2] was below 100 nM throughout.

These data come from US8148391B2 (Cephalon, Inc., priority 2006, dated 2012).
